Values of other authors in US7740874B2, “Method of making a lanolin free absorption base” (Quintessa Corporation, priority 2002, dated 2010).

Settings: hydrophilic-lipophilic balance

## methyl glucose dioleate [emulsifier]
  HLB: 5
